Data: patent publication US11161819B2, “Substituted tetrahydroisoquinoline compounds useful as GPR120 agonists” (Merck Sharp & Dohme Corp., priority 2016, dated 2021)

Biological target: T1, human GPR120 (Homo sapiens, UniProt Q5NUL3)
T1 construct: expressed in transfected cells
T1 sequence (Q5NUL3 1-361): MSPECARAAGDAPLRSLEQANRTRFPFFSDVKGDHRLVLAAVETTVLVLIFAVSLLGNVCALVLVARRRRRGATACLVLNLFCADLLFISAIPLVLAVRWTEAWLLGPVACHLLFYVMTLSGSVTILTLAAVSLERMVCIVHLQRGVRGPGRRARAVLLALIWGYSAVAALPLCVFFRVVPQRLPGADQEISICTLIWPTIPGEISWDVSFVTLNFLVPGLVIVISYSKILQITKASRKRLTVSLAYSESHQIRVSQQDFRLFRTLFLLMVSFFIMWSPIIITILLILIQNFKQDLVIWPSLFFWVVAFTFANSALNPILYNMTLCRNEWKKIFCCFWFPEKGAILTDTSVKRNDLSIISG
Assay: Human GPR120 IP1 Assay (inositol phosphate turnover, CisBio IP-One kit)
Assay type: cell-based
Details: IP1 accumulation in CHO-K1 cells stably expressing the short form of human GPR120; 60 min compound incubation; 4-parameter fit; read-out: hGPR120 EC50
How it was run: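 CHO-K1 cells stably expressing short-form human GPR120 were stimulated with compounds for 60 minutes at 37 degrees in stimulation buffer. IP1 accumulation measured by HTRF competitive immunoassay (665/620 nm ratio) against an IP1 standard curve, normalized to a reference compound; EC50 from 4-parameter fit.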

| Compound | EC50 |
| --- | --- |
| CO[C@H]1C[C@H](Oc2cc(F)c(C#N)c(N3CCc4cc([C@@H]5C[C@H]5C(=O)O)ccc4C3)c2)C1 [Example 103, (1R,2R)-2-(2-{2-cyano-3-fluoro-5-[(trans-3-methoxycyclobutyl)oxy]phenyl}-1,2,3,4-tetrahydroiso-quinolin-6-yl)cyclopropane-carboxylic acid] | 3000 nM |
| O=C(O)C1CC1c1ccc2c(c1)CCN(c1cc(OC(F)(F)F)cc(Cl)c1F)C2 (centres unmarked) [Example 104, 2-{2-[3-chloro-2-fluoro-5-(trifluoro-methoxy)phenyl]-1,2,3,4-tetra-hydroisoquinolin-6-yl}cyclo-propane-carboxylic acid] | 4040 nM |
| O=C(O)C1CC1c1ccc2c(c1)CCN(c1cc(OC(F)(F)F)cc(Cl)c1F)C2 (centres unmarked) [Example 105, 2-{2-[3-chloro-2-fluoro-5-(trifluoro-methoxy)phenyl]-1,2,3,4-tetra-hydroisoquinolin-6-yl}cyclo-propane-carboxylic acid] | 6610 nM |
| CO[C@H]1C[C@H](Oc2cc(F)c(F)c(N3CCc4c(ccc([C@H]5C[C@@H]5C(=O)O)c4F)C3)c2)C1 [Example 106, (1 S,2S)-2-(2-(2,3-difluoro-5-((1 r,3S)-3-methoxycyclobutoxy)phenyl)-5-fluoro-1,2,3,4-tetra-hydroisoquinolin-6-yl)cyclopropanecarboxylic acid] | 83 nM |
| N#Cc1cc(OC(F)(F)F)cc(N2CCc3c(ccc([C@H]4C[C@@H]4C(=O)O)c3F)C2)c1F [Example 107, (1S,2S)-2-(2-(3-cyano-2-fluoro-5-(trifluoromethoxy)phenyl)-5-fluoro-1,2,3,4-tetrahydroisoquinolin-6-yl)cyclopropanecarboxylic acid] | 122 nM |
| C[C@H]1C[C@H](Oc2cc(F)c(F)c(N3CCc4c(ccc([C@H]5C[C@@H]5C(=O)O)c4F)C3)c2)C1 [Example 108, (1S,2S)-2-(2-(2,3-difluoro-5-((1r,3S)-3-methylcyclobutoxy)phenyl)-5-fluoro-1,2,3,4-tetra-hydroisoquinolin-6-yl)cyclopropanecarboxylic acid] | 122 nM |
| N#Cc1cc(OC(F)(F)F)cc(N2CCc3c(ccc([C@@H]4C[C@H]4C(=O)O)c3F)C2)c1F [Example 109, (1R,2R)-2-{2-[3-cyano-2-fluoro-5-(trifluoromethoxy)phenyl]-5-fluoro-1,2,3,4-tetrahydroisoquinolin-6-yl}cyclopropane-carboxylic acid] | 22 nM |
| CO[C@H]1C[C@H](Oc2cc(F)c(F)c(N3CCc4c(ccc([C@@H]5C[C@H]5C(=O)O)c4F)C3)c2)C1 [Example 110, (1R,2R)-2-(2-{2,3-difluoro-5-[(trans-3-methoxycyclobutyl)oxy]phenyl}-5-fluoro-1,2,3,4-tetrahydroisoquinolin-6-yl)-cyclopropanecarboxylic acid] | 42 nM |
| O=C(O)[C@@H]1C[C@H]1c1ccc2c(c1F)CCN(c1cc(OC(F)(F)F)cc(Cl)c1F)C2 [Example 111, (1R,2R)-2-{2-[3-chloro-2-fluoro-5-(trifluoromethoxy)-phenyl]-5-fluoro-1,2,3,4-tetrahydroisoquinolin-6-yl}cyclo-propanecarboxylic acid] | 32 nM |
| C[C@H]1C[C@H](Oc2cc(F)c(F)c(N3CCc4c(ccc([C@@H]5C[C@H]5C(=O)O)c4F)C3)c2)C1 [Example 112, (1R,2R)-2-(2-{2,3-difluoro-5-[(trans-3-methylcyclobutyl)oxy]phenyl}-5-fluoro-1,2,3,4-tetrahydroisoquinolin-6-yl) cyclopropanecarboxylic acid] | 42 nM |
| O=C(O)[C@@H]1C[C@H]1c1ccc2c(c1F)CCN(c1cc(OC(F)(F)F)ccc1F)C2 [Example 113] | 59 nM |
| O=C(O)[C@@H]1C[C@H]1c1ccc2c(c1)CCN(c1cc(OC3CCC3)cc(Cl)c1F)C2 [Example 114, (1R,2R)-2-{2-[3-chloro-5-(cyclobutyloxy)-2-fluorophenyl]-1,2,3,4-tetrahydroisoquinolin-6-yl} cyclopropanecarboxylic acid] | 61 nM |
| N#Cc1cc(OC(F)(F)F)cc(N2CCc3c(ccc([C@H]4C[C@@H]4C(=O)O)c3F)C2)c1F [Example 116, (1S,2S)-2-{2-[3-cyano-2-fluoro-5-(trifluoromethoxy)phenyl]-5-fluoro-1,2,3,4-tetrahydroiso-quinolin-6-yl}cyclopropane-carboxylic acid] | 107 nM |
| N#Cc1ccc(OC(F)(F)F)cc1N1CCc2c(ccc([C@H]3C[C@@H]3C(=O)O)c2F)C1 [Example 117, (1S,2S)-2-{2-[2-cyano-5-(trifluoromethoxy)phenyl]-5-fluoro-1,2,3,4-tetrahydroisoquinolin-6-yl} cyclopropane-carboxylic acid] | 143 nM |
| O=C(O)[C@H]1C[C@@H]1c1ccc2c(c1F)CCN(c1cc(OC(F)(F)F)ccc1F)C2 [Example 118, (1S,2S)-2-{5-fluoro-2-[2-fluoro-5-(trifluoromethoxy)phenyl]-1,2,3,4-tetrahydroisoquinolin-6-yl} cyclopropane-carboxylic acid] | 215 nM |
| N#Cc1c(F)cc(OC(F)(F)F)cc1N1CCc2c(ccc([C@H]3C[C@@H]3C(=O)O)c2F)C1 [Example 119, (1S,2S)-2-{2-[2-cyano-3-fluoro-5-(trifluoromethoxy)phenyl]-5-fluoro-1,2,3,4-tetrahydroisoquinolin-6-yl}cyclopropane-carboxylic acid] | 273 nM |
| O=C(O)[C@H]1C[C@@H]1c1ccc2c(c1F)CCN(c1cc(OC(F)(F)F)cc(Cl)c1F)C2 [Example 120, (1S,2S)-2-{2-[3-chloro-2-fluoro-5-(trifluoromethoxy)phenyl]-5-fluoro-1,2,3,4-tetrahydroisoquinolin-6-yl}cyclopropane-carboxylic acid] | 299 nM |
| O=C(O)[C@@H]1C[C@H]1c1ccc2c(c1F)CCN(c1cc(OC(F)(F)F)cc(F)c1Cl)C2 [Example 121, (1R,2R)-2-{2-[2-chloro-3-fluoro-5-(trifluoromethoxy)phenyl]-5-fluoro-1,2,3,4-tetra-hydroisoquinolin-6-yl}cyclo-propanecarboxylic acid] | 73 nM |
| C[C@H]1C[C@H](Oc2cc(F)c(F)c(N3CCc4c(ccc([C@H]5C[C@@H]5C(=O)O)c4F)C3)c2)C1 [Example 122, (1S,2S)-2-(2-{2,3-difluoro-5-[(trans-3-methylcyclobutyl)oxy]phenyl}-5-fluoro-1,2,3,4-tetrahydro-isoquinolin-6-yl)cyclopropane-carboxylic acid] | 121 nM |
| O=C(O)[C@@H]1C[C@H]1c1ccc2c(c1F)CCN(c1cc(OC3CCC3)cc(Cl)c1F)C2 [Example 123, (1R,2R)-2-{2-[3-chloro-5-(cyclobutyloxy)-2-fluorophenyl]-5-fluoro-1,2,3,4-tetrahydroisoquinolin-6-yl}cyclopropane-carboxylic acid] | 766 nM |
| O=C(O)[C@H]1C[C@@H]1c1ccc2c(c1F)CCN(c1cc(OC(F)(F)F)cc(F)c1Cl)C2 [Example 124, (1S,2S)-2-{2-[2-chloro-3-fluoro-5-(trifluoromethoxy)phenyl]-5-fluoro-1,2,3,4-tetrahydro-isoquinolin-6-yl}cyclopropane-carboxylic acid] | 824 nM |
| O=C(O)[C@H]1C[C@@H]1c1ccc2c(c1F)CCN(c1cc(OC3CCC3)cc(Cl)c1F)C2 [Example 125, (1S,2S)-2-{2-[3-chloro-5-(cyclobutyloxy)-2-fluorophenyl]-5-fluoro-1,2,3,4-tetrahydroisoquinolin-6-yl}cyclopropane-carboxylic acid] | 414 nM |
| N#Cc1c(F)cc(OC2CCC2)cc1N1CCc2c(ccc([C@H]3C[C@@H]3C(=O)O)c2F)C1 [Example 126, (1S,2S)-2-{2-[2-cyano-5-(cyclo-butyloxy)-3-fluorophenyl]-5-fluoro-1,2,3,4-tetrahydroiso-quinolin-6-yl}cyclopropane-carboxylic acid] | 9740 nM |
| Cc1ccc(-n2nc(C)c(C#N)c2N2CCc3cc(CCCCC(=O)O)ccc3C2)cc1 [Example 127, 5-(2-(4-cyano-3-methyl-1-(p-tolyl)-1H-pyrazol-5-yl)-1,2,3,4-tetrahydro-isoquinolin-6-yl)pentanoic acid] | 35 nM |
| Cc1ccc(-n2nc(C)c(C#N)c2N2CCc3cc(O)ccc3C2)cc1 [Example 129, 5-(6-hydroxy-3,4-dihydroisoquinolin-2(1H)-yl)-3-methyl-1-(p-tolyl)-1H-pyrazole-4-carbonitrile] | 92 nM |
| Cc1ccc(-n2nc(C)c(C#N)c2N2CCc3cc(OCCO)ccc3C2)cc1 [Example 130, 5-(6-(2-hydroxyethoxy)-3,4-dihydroisoquinolin-2(1H)-yl)-3-methyl-1-(p-tolyl)-1H-pyrazole-4-carbonitrile] | 87 nM |
| O=C(O)CCc1cc2c(cc1F)CN(c1cc(OC3CCC3)cc(F)c1F)CC2 [Example 131, 3-(2-(5-cyclobutoxy-2,3-difluorophenyl)-7-fluoro-1,2,3,4-tetrahydro-isoquinolin-6-yl)propanoic acid] | 174 nM |
| CO[C@H]1C[C@H](Oc2cc(F)c(F)c(N3CCc4cc(CCc5nnn[nH]5)ccc4C3)c2)C1 [Example 132, 6-(2-(1H-tetrazol-5-yl)ethyl)-2-(2,3-difluoro-5-((1r,3r)-3-methoxylcyclobutoxy)-phenyl)-1,2,3,4-tetrahydroisoquinoline] | 406 nM |
| COc1ccc(-n2nc(C)c(C#N)c2N2CCc3cc(CCCCC(=O)O)ccc3C2)cc1 [Example 133, 5-{2-[4-cyano-1-(4-methoxyphenyl)-3-methyl-1H-pyrazol-5-yl]-1,2,3,4-tetrahydroisoquinolin-6-yl} pentanoic acid] | 50 nM |
